Where two headings read alike, the source gives them in different places.
Experiments:
[1] = system: phosphorylated AKT Ser473 (pAKT S473), mTORC2 activity, PC3 cells; assay: mTOR target engagement assay, immunofluorescent cell-based, pAKT S473 readout (mTORC2 activity)
Summary of the method: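 After blocking, cells were stained overnight at 4 °C with anti-pAKT S473 antibody, then a fluorescent secondary; inhibition was read as reduced fluorescence intensity.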

[2] = system: phosphorylated 4E-BP1 Thr37/46 (p4E-BP1 Thr37/46), mTORC1 activity, PC3 cells; assay: mTOR target engagement assay, immunofluorescent cell-based, p4E-BP1 Thr37/46 readout (mTORC1 activity); details: read-out: p4E-BP1 Thr37/46 IC50
Summary of the method: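 PTEN-mutant PC3 prostate cells were treated with serially diluted compound in 5% FBS F12 medium (0.25% DMSO) for ninety minutes at 37° C, glyoxal-fixed, then immunostained overnight at 4° C for p4E-BP1 Thr37/46 with an Alexa Fluor 488 secondary. IC50 came from four-parameter fits of fluorescence, DMSO-only wells defining 100%.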

[3] = Homo sapiens, PC-3, Table 7-8, PC3 cells
[4] = Homo sapiens, PC-3, Table 3-1, PC3 cells
[5] = Homo sapiens, PC-3, PC3 cells, compound treatment ninety minutes at 37° C.

| SMILES | IC50 [1, 5] | IC50 [2, 5] | also measured |
| --- | --- | --- | --- |
| CS(=O)(=O)c1c([C@@H]2C[C@H]3CC[C@@H](C2)N3C(=O)c2nnc[nH]2)nc2c(-c3ccc(C4(O)CCCC4)nc3)cnn2c1N [Compound 7.46, ((1R,3s,5S)-3-(7-amino-3-(6-(1-hydroxycyclopentyl)pyridin-3-yl)-6-(methylsulfonyl)pyrazolo [1,5-a]pyrimidin-5-yl)-8-azabicyclo[3.2.1]octan-8-yl)(4H-1,2,4-triazol-3-yl)methanone] |  |  | IC50 [1, 3]: 1 to 100 nM; IC50 [2, 3]: 1 to 100 nM |
| CNC(=O)c1ccc(-c2cnn3c(N)c(S(C)(=O)=O)c([C@@H]4C[C@H]5CC[C@@H](C4)N5C(=O)c4nc[nH]n4)nc23)cn1 [Compound 3.17, 5-(5-((1R,3s,5S)-8-(1H-1,2,4-triazole-3-carbonyl)-8-azabicyclo[3.2.1]octan-3-yl)-7-amino-6-(methylsulfonyl)pyrazolo[1,5-a]pyrimidin-3-yl)-N-methylpicolinamide] |  |  | IC50 [1, 4]: > 10000 nM; IC50 [2, 4]: 1000 to 10000 nM |
| CC(=O)c1c([C@@H]2C[C@H]3CC[C@@H](C2)N3C(=O)c2nnc[nH]2)nc2c(-c3ccc(-c4cc(C)[nH]n4)nc3)cnn2c1N [Compound 1.1.95, 1-(5-((1R,3s,5S)-8-(4H-1,2,4-triazole-3-carbonyl)-8-azabicyclo[3.2.1]octan-3-yl)-7-amino-3-(6-(5-methyl-1H-pyrazol-3-yl)pyridin-3-yl)pyrazolo[1,5-a]pyrimidin-6-yl)ethanone] | 1000 to 10000 nM | 1000 to 10000 nM |  |
| CC(=O)c1c([C@@H]2C[C@H]3CC[C@@H](C2)N3C(=O)c2nnc[nH]2)nc2c(-c3cnc4c(c3)CCCC4O)cnn2c1N (stereo partly drawn) [Compound 7.59, 1-(5-((1R,3s,5S)-8-(4H-1,2,4-triazole-3-carbonyl)-8-azabicyclo[3.2.1]octan-3-yl)-7-amino-3-(8-hydroxy-5,6,7,8-tetrahydroquinolin-3-yl)pyrazolo[1,5-a]pyrimidin-6-yl)ethanone] |  |  | IC50 ([1]; PC3 cells): 100 to 1000 nM; IC50 ([2]; PC3 cells): 1 to 100 nM |
| CC(=O)Nc1nc(C(=O)N2[C@@H]3CC[C@H]2C[C@H](c2nc4c(-c5ccc(-c6ccccc6)nc5)cnn4c(N)c2C(C)=O)C3)n[nH]1 [Compound 1.1.142, N-(3-((1R,3s,5S)-3-(6-acetyl-7-amino-3-(6-phenylpyridin-3-yl)pyrazolo[1,5-a]pyrimidin-5-yl)-8-azabicyclo[3.2.1]octane-8-carbonyl)-1H-1,2,4-triazol-5-yl)acetamide] | 100 to 1000 nM | 100 to 1000 nM |  |
| CC(=O)c1c([C@@H]2C[C@H]3CC[C@@H](C2)N3C(=O)c2nnc[nH]2)nc2c(-c3ccc(-n4ccc(C)n4)nc3)cnn2c1N [Compound 1.1.136, 1-(5-((1R,3s,5S)-8-(4H-1,2,4-triazole-3-carbonyl)-8-azabicyclo[3.2.1]octan-3-yl)-7-amino-3-(6-(3-methyl-1H-pyrazol-1-yl)pyridin-3-yl)pyrazolo[1,5-a]pyrimidin-6-yl)ethanone] | 1 to 100 nM | 100 to 1000 nM |  |
| CS(=O)(=O)c1c([C@@H]2C[C@H]3CC[C@@H](C2)N3C(=O)c2nnc[nH]2)nc2c(-c3ccc(-c4ccc(OC5CC5)cc4)nc3)cnn2c1N [Compound 3.61, ((1R,3s,5S)-3-(7-amino-3-(6-(4-cyclopropoxyphenyl)pyridin-3-yl)-6-(methylsulfonyl)pyrazolo[1,5-a]pyrimidin-5-yl)-8-azabicyclo[3.2.1]octan-8-yl)(4H-1,2,4-triazol-3-yl)methanone] |  |  | IC50 [1, 4]: 100 to 1000 nM; IC50 [2, 4]: 100 to 1000 nM |
| Nc1cc([C@@H]2C[C@H]3CC[C@@H](C2)N3C(=O)c2nnc[nH]2)nc2c(-c3ccc4[nH]ncc4c3)cnn12 [Compound 2.12, ((1R,3s,5S)-3-(7-amino-3-(1H-indazol-5-yl)pyrazolo[1,5-a]pyrimidin-5-yl)-8-azabicyclo[3.2.1]octan-8-yl)(1H-1,2,4-triazol-5-yl)methanone] | > 10000 nM | > 10000 nM |  |

Reference: patent publication US9227971B2, “Pyrazolo[1,5-a]pyrimidine compounds as mTOR inhibitors” (Merck Sharp & Dohme Corp., priority 2010, dated 2016)
